Data published in PMC4161155 (Journal of Medicinal Chemistry, 2014).

Columns and labels:
rNTS2 receptor [1] = molecular target: T1, rNTS2 receptor (Rattus norvegicus, UniProt Q63384); experiment: NTS2 FLIPR calcium mobilization assay, agonist mode; assay type: cell-based; details: for agonist behaviour in the NTS2 FLIPR assay (calcium release): CHO cell line stably expressing rNTS2, FLIPR Tetra, pilot study
T1 sequence (Q63384 1-416): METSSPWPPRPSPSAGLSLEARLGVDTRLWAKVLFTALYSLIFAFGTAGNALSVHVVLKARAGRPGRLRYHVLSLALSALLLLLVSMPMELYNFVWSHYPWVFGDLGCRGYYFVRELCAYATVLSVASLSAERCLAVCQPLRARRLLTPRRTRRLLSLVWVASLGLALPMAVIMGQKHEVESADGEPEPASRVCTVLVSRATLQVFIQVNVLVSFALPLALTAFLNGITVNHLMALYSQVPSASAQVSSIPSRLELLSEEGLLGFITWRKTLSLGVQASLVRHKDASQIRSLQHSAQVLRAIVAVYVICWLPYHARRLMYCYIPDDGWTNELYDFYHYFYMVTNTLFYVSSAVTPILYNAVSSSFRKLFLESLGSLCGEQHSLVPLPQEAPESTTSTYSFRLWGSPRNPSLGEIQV

rNTS2 receptor [2] = molecular target: T1, rNTS2 receptor; experiment: NTS2 FLIPR calcium mobilization assay, antagonist mode; assay type: cell-based; details: for type of antagonism of 3b in the Ke experiment at NTS2: Ke assays against dose-response curves of control agonist 3b
rNTS2 receptor [3] = molecular target: T1, rNTS2 receptor; experiment: Competitive binding assay versus [125I]NT at NTS2; details: ratio of Ki values, versus compound 13
NTS1 = NTS1 (Rattus norvegicus, UniProt P20789); experiment: NTS1 FLIPR assay; assay type: cell-based; details: data not shown
Chain of NTS1 (P20789 whole entry): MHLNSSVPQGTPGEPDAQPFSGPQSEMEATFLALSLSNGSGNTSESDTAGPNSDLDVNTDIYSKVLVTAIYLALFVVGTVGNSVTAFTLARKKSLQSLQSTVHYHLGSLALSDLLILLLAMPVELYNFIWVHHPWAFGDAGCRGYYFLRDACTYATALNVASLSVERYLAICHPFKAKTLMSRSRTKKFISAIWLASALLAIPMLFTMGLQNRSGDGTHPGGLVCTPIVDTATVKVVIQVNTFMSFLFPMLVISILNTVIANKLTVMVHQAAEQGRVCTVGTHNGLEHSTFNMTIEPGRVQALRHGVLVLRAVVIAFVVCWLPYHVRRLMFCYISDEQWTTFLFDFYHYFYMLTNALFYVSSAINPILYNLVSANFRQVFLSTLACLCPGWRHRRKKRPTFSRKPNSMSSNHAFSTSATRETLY

Compound | agonist behaviour in the NTS2 FLIPR assay (calcium release) (rNTS2 receptor [1]) | type of antagonism of 3b in the Ke experiment at NTS2 (rNTS2 receptor [2]) | activity in the NTS1 FLIPR assay (NTS1) | further results
COc1cccc(OC)c1-c1cc(C(=O)NC2(C(=O)O)C3CC4CC(C3)CC2C4)nn1-c1ccnc2cc(Cl)ccc12 (stereo not shown) [3a] | full agonists |  |  | 
COc1cccc(OC)c1-c1cc(C(=O)NC2(C(=O)O)C3CC4CC(C3)CC2C4)nn1-c1ccc(C(=O)N(C)CCCN(C)C)cc1C(C)C (stereo not shown) [3b] | full agonists |  |  | 
C[C@@H]1CN([C@H]2CC[C@](C#N)(c3ccc(F)cc3)CC2)CC[C@]1(C(=O)O)c1ccccc1 [Levocabastine, levocabastine] | potent partial agonist activity |  |  | Emax (rNTS2 receptor [1]; read-out: FLIPR assay NTS2 Emax): 14 to 16%
Cc1ccc(S(=O)(=O)Nc2ccc3c(c2)c(C(=O)C(F)(F)F)cn3CC(=O)N[C@@H](CC(C)C)C(=O)O)cc1 [compound 5, N-{[5-{[(4-Methylphenyl)sulfonyl]amino}-3-(trifluoroacetyl)-1H-indol-1-yl]acetyl}-L-leucine] |  | insurmountable antagonist activity | Neither of the test compounds (5 or 13) showed activity | fold more active than 13 in the NTS2 FLIPR assay (antagonist activity) (rNTS2 receptor [2]; ratio of IC50 values, versus compound 13): 90 fold; fold more active than NT in the NTS2 FLIPR assay (rNTS2 receptor [2]; ratio of IC50 values, versus endogenous ligand NT): ~3 fold; fold boost to NTS2 binding affinity versus 13 (rNTS2 receptor [3]): 7.5 fold
Cc1ccc(S(=O)(=O)Nc2ccc3c(ccn3CC(=O)N[C@@H](CC(C)C)C(=O)O)c2)cc1 [compound 13, N-[(5-{[(4-Methylphenyl)sulfonyl]amino}-1H-indol-1-yl)acetyl]-L-leucine] |  | insurmountable | Neither of the test compounds (5 or 13) showed activity | NTS2 agonist activity in library screen (rNTS2 receptor [1]; single concentration 10 μM): devoid of NTS2 agonist activity; activity at NTS1 in library screen (NTS1; single concentration 10 μM): no activity at NTS1
